Test results published in patent US20230173018A1, “CASPOFUNGIN DERIVATIVES AND ASSAYS FOR EVALUATING ANTIFUNGAL TREATMENT EFFICACY” (priority 2020, published 2023).
≈ marks a conversion by molar mass, not a printed value.

Key:
Format in all cases: cell-based
[1] = test system: C. albicans CG72; test: microbe, parasite or virus in culture; details: strain no. 7, CG72, parental CAM, pKE1:GFP-YPT72
Excerpt: (§1) The antifungal activities of compounds 1a, 1 and 2 (collectively: caspofungin derivatives) were compared to that of caspofungin and CSF-BOD using a panel of 49 C. albicans and C. glabrata strains (Tables 1 and 2). The panel included ATCC strains and clinical isolates as well a collection of caspofungin-responsive strains and their corresponding isogenic caspofungin-resistant derivatives, constructed by introducing point mutations within and near the defined hotspots in the FKS1 and/or FKS2 genes of the GS complex. Minimal inhibitory concentration (MIC) values for all strains were determined using the broth double dilution method and are summarized in FIG. 2 and Table 2. […] The clinical breakpoints (threshold) for caspofungin-resistance in C. albicans and C. glabrata are 1 μg/mL and 0.5 μg/mL, respectively.

[2] = test system: C. albicans DPL1015 (DP-A15); test: microbe, parasite or virus in culture; details: strain no. 2, DPL1015 (DP-A15), parental SC5314, FKS1 mutant HS1-S645S/P
Excerpt: as §1

[3] = test system: C. albicans DPL1016 (DP-A15-10); test: microbe, parasite or virus in culture; details: strain no. 3, DPL1016 (DP-A15-10), parental SC5314, FKS1 mutant HS1-S645P
Excerpt: as §1

[4] = test system: C. albicans SN95; test: microbe, parasite or virus in culture; details: strain no. 8, SN95, parental RM1000
Excerpt: as §1

[5] = test system: C. albicans T-2068 (DP-C42); test: microbe, parasite or virus in culture; details: strain no. 4, T-2068 (DP-C42), parental SC5314, FKS1 HS1-F641S mutation
Excerpt: as §1

[6] = test system: C. albicans T-2069 (DP-85); test: microbe, parasite or virus in culture; details: strain no. 14, T-2069 (DP-85), clinical isolate, FKS1 HS1-S645F mutation
Excerpt: as §1

[7] = test system: C. albicans T-2074 (DP-122); test: microbe, parasite or virus in culture; details: strain no. 12, T-2074 (DP-122), clinical isolate, FKS1 HS1-P649H mutation
Excerpt: as §1

[8] = test system: C. albicans T-2076 (DP-194); test: microbe, parasite or virus in culture; details: strain no. 13, T-2076 (DP-194), clinical isolate, FKS1 HS1-S645F, HS2-R1361R/H mutation
Excerpt: as §1

[9] = test system: C. albicans T-2077 (DP-205); test: microbe, parasite or virus in culture; details: strain no. 15, T-2077 (DP-205), clinical isolate, FKS1 HS1-S645P mutation
Excerpt: as §1

[10] = test system: C. glabrata CST78; test: microbe, parasite or virus in culture; details: strain no. 26, C. glabrata CST78
Excerpt: as §1

[11] = test system: C. glabrata DPL1086; test: microbe, parasite or virus in culture; details: strain no. 17, DPL1086, parental ATCC 90030, FKS1 mutant HS1-S629P
Excerpt: as §1

[12] = test system: C. glabrata T-985 (11-076); test: microbe, parasite or virus in culture; details: strain no. 49, T-985 (11-076), clinical isolate
Excerpt: as §1

[13] = test system: C. glabrata TGL00054; test: microbe, parasite or virus in culture; details: strain no. 19, TGL00054, parental CST109, FKS2 mutant
Excerpt: as §1

[14] = test system: C. glabrata TGL00056; test: microbe, parasite or virus in culture; details: strain no. 22, TGL00056, parental CST34, FKS mutant
Excerpt: as §1

[15] = test system: C. glabrata TGL00065; test: microbe, parasite or virus in culture; details: strain no. 27, TGL00065, FKS mutant
Excerpt: as §1

[16] = test system: C. glabrata TGL00091; test: microbe, parasite or virus in culture; details: strain no. 35, TGL00091, FKS mutant
Excerpt: as §1

[17] = test system: C. glabrata TGL00107; test: microbe, parasite or virus in culture; details: strain no. 23, TGL00107, parental CST34, FKS mutant
Excerpt: as §1

[18] = test system: C. glabrata TGL00253; test: microbe, parasite or virus in culture; details: strain no. 20, TGL00253, parental CST109, FKS2 mutant
Excerpt: as §1

[19] = test system: C. glabrata TGL00256; test: microbe, parasite or virus in culture; details: strain no. 24, TGL00256, parental CST34, FKS mutant
Excerpt: as §1

[20] = test system: C. glabrata TGL00258; test: microbe, parasite or virus in culture; details: strain no. 25, TGL00258, parental CST34, FKS mutant
Excerpt: as §1

[21] = test system: C. glabrata TGL00263; test: microbe, parasite or virus in culture; details: strain no. 28, TGL00263, parental CST78, FKS mutant
Excerpt: as §1

[22] = test system: C. glabrata TGL00264; test: microbe, parasite or virus in culture; details: strain no. 29, TGL00264, parental CST78, FKS mutant
Excerpt: as §1

[23] = test system: C. glabrata TGL00265; test: microbe, parasite or virus in culture; details: strain no. 30, TGL00265, parental CST78, FKS mutant
Excerpt: as §1

[24] = test system: C. glabrata TGL00275; test: microbe, parasite or virus in culture; details: strain no. 32, TGL00275, FKS mutant
Excerpt: as §1

[25] = test system: C. glabrata TGL00277; test: microbe, parasite or virus in culture; details: strain no. 33, TGL00277, parental EF1620, FKS mutant
Excerpt: as §1

[26] = test system: C. glabrata TGL00291; test: microbe, parasite or virus in culture; details: strain no. 36, TGL00291, parental BG2, FKS mutant
Excerpt: as §1

[27] = test system: C. glabrata TGL00293; test: microbe, parasite or virus in culture; details: strain no. 37, TGL00293, parental BG2, FKS mutant
Excerpt: as §1

[28] = test system: C. glabrata TGL00294; test: microbe, parasite or virus in culture; details: strain no. 38, TGL00294, parental BG2, FKS mutant
Excerpt: as §1

[29] = test system: C. albicans SN152; test: MIC, broth double dilution; details: strain no. 5, C. albicans SN152
Excerpt: as §1

[30] = test system: C. glabrata ATCC 66032; test: MIC, broth double dilution; details: strain no. 40, C. glabrata ATCC 66032
Excerpt: as §1

[31] = test system: C. glabrata T-192 (1775); test: MIC, broth double dilution; details: strain no. 44, T-192 (1775), clinical isolate
Excerpt: as §1

[32] = test system: C. glabrata T-982 (11-181); test: MIC, broth double dilution; details: strain no. 46, T-982 (11-181), clinical isolate
Excerpt: as §1

[33] = test system: C. glabrata T-983 (11-079); test: MIC, broth double dilution; details: strain no. 47, T-983 (11-079), clinical isolate
Excerpt: as §1

[34] = test system: C. glabrata T-984 (11-078); test: MIC, broth double dilution; details: strain no. 48, T-984 (11-078), clinical isolate
Excerpt: as §1

| SMILES | MIC [1] [µg/mL] | MIC [2] [µg/mL] | MIC [3] [µg/mL] | MIC [4] [µg/mL] | MIC [5] [µg/mL] | MIC [6] [µg/mL] | MIC [7] [µg/mL] | MIC [8] [µg/mL] | MIC [9] [µg/mL] | MIC [10] [µg/mL] | MIC [11] [µg/mL] | MIC [12] [µg/mL] | MIC [13] [µg/mL] | MIC [14] [µg/mL] | MIC [15] [µg/mL] | MIC [16] [µg/mL] | MIC [17] [µg/mL] | MIC [18] [µg/mL] | MIC [19] [µg/mL] | MIC [20] [µg/mL] | other results |
| --- | --- | --- | --- | --- | --- | --- | --- | --- | --- | --- | --- | --- | --- | --- | --- | --- | --- | --- | --- | --- | --- |
| CC[C@H](C)C[C@H](C)CCCCCCCCC(=O)N[C@H]1C[C@@H](O)[C@@H](NCCNC(=O)CCc2ccc3n2[B-](F)(F)[N+]2=C(C)C=C(C)C2=C3)NC(=O)[C@@H]2[C@@H](O)CCN2C(=O)[C@H]([C@H](O)CCN)NC(=O)[C@H]([C@H](O)[C@@H](O)c2ccc(O)cc2)NC(=O)[C@@H]2C[C@@H](O)CN2C(=O)[C@H]([C@@H](C)O)NC1=O [CSF-BOD] | 1 (≈ 0.731 µM) | 16 (≈ 11.7 µM) | >64 | 2 (≈ 1.46 µM) | >64 | >64 | 16 (≈ 11.7 µM) | 32 (≈ 23.4 µM) | >64 | 2 (≈ 1.46 µM) | 16 (≈ 11.7 µM) | 2 (≈ 1.46 µM) | >64 | >64 | >64 | >64 | >64 | >64 | 8 (≈ 5.85 µM) | >64 | MIC [21]: >64 µg/mL; MIC [22]: >64 µg/mL; MIC [23]: >64 µg/mL; MIC [24]: >64 µg/mL; MIC [25]: >64 µg/mL; MIC [26]: >64 µg/mL; MIC [27]: >64 µg/mL; MIC [28]: >64 µg/mL; MIC [29]: 1 µg/mL (≈ 0.731 µM); MIC [30]: 2 µg/mL (≈ 1.46 µM); MIC [31]: 2 µg/mL (≈ 1.46 µM); MIC [32]: 1 µg/mL (≈ 0.731 µM); MIC [33]: 2 µg/mL (≈ 1.46 µM); MIC [34]: 2 µg/mL (≈ 1.46 µM) |
| CC[C@H](C)C[C@H](C)CCCCCCCCC(=O)N[C@H]1C[C@@H](O)[C@@H](NCCN)NC(=O)[C@@H]2[C@@H](O)CCN2C(=O)[C@H]([C@H](O)CCN)NC(=O)[C@H]([C@H](O)[C@@H](O)c2ccc(OCc3cn(CCCNc4ccc([N+](=O)[O-])c5nonc45)nn3)cc2)NC(=O)[C@@H]2C[C@@H](O)CN2C(=O)[C@H]([C@@H](C)O)NC1=O [Compound 2] | 1 (≈ 0.717 µM) | 32 (≈ 22.9 µM) | >64 | 2 (≈ 1.43 µM) | 64 (≈ 45.9 µM) | >64 | 64 (≈ 45.9 µM) | >64 | >64 | 4 (≈ 2.87 µM) | 32 (≈ 22.9 µM) | 4 (≈ 2.87 µM) | >64 | >64 | >64 | >64 | >64 | >64 | 64 (≈ 45.9 µM) | >64 | MIC [21]: >64 µg/mL; MIC [22]: >64 µg/mL; MIC [23]: >64 µg/mL; MIC [24]: >64 µg/mL; MIC [25]: >64 µg/mL; MIC [26]: >64 µg/mL; MIC [27]: >64 µg/mL; MIC [28]: >64 µg/mL; MIC [29]: 1 µg/mL (≈ 0.717 µM); MIC [30]: 2 µg/mL (≈ 1.43 µM); MIC [31]: 2 µg/mL (≈ 1.43 µM); MIC [32]: 2 µg/mL (≈ 1.43 µM); MIC [33]: 2 µg/mL (≈ 1.43 µM); MIC [34]: 2 µg/mL (≈ 1.43 µM) |
